Assay: CD69 Whole Blood Assay (CD69 Hu Blood FACS)
Format: cell-based, human
Settings: Lymphocyte; human whole blood, anti-IgM activated B lymphocytes, FACS; IC70; Table 2 (unit inferred); read-out: CD69 Hu Blood FACS (IC70)
Outline: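 Human whole blood stimulated by crosslinking surface IgM with goat F(ab′)2 anti-human IgM; inhibition of CD69 expression on B lymphocytes measured by flow cytometry.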

| Structure (SMILES) | IC70 |
| --- | --- |
| C[C@H]1CN(C2COC2)CCN1c1ccc(Nc2cc(-c3ccnc(-n4ccc5c(cc6n5CCCC6)c4=O)c3CO)cn(C)c2=O)nc1 [Example 245, (S)-2-(3-(Hydroxymethyl)-4-(1-methyl-5-(5-(2-methyl-4-(oxetan-3-yl)piperazin-1-yl)pyridin-2-ylamino)-6-oxo-1,6-dihydropyridin-3-yl)pyridin-2-yl)-6,7,8,9-tetrahydropyrido[3,4-b]indolizin-1(2H)-one] | 0.065 µM |
| Cc1cc(Nc2cc(-c3ccnc(-n4ccc5c(cc6n5CCCC6)c4=O)c3CO)cn(C)c2=O)nn1C [Example 246, 2-[4-[5-[(1,5-dimethylpyrazol-3-yl)amino]-1-methyl-6-oxo-3-pyridyl]-3-(hydroxymethyl)-2-pyridyl]-6,7,8,9-tetrahydropyrido[3,4-b]indolizin-1-one] | 1.7 µM |
| CC(=O)N1CCn2nc(Nc3cc(-c4ccnc(-n5ncc6c7c(sc6c5=O)CCCC7)c4CO)cn(C)c3=O)cc2C1 [Example 247, 3-[4-[5-[(5-acetyl-6,7-dihydro-4H-pyrazolo[1,5-a]pyrazin-2-yl)amino]-1-methyl-6-oxo-3-pyridyl]-3-(hydroxymethyl)-2-pyridyl]-6,7,8,9-tetrahydrobenzothiopheno[2,3-d]pyridazin-4-one] | 0.145 µM |
| C[C@@H]1COCCN1C(=O)c1ccc(Nc2cc(-c3ccnc(N4CCn5c(cc6c5CC(C)(C)C6)C4=O)c3CO)nn(C)c2=O)nc1 [Example 248, 3-[3-(hydroxymethyl)-4-[1-methyl-5-[[5-[(3R)-3-methylmorpholine-4-carbonyl]-2-pyridyl]amino]-6-oxo-pyridazin-3-yl]-2-pyridyl]-7,7-dimethyl-1,2,6,8-tetrahydrocyclopenta[3,4]pyrrolo[3,5-b]pyrazin-4-one] | 0.0703 µM |
| C[C@@H]1COCCN1C(=O)c1ccc(Nc2cc(-c3ccnc(N4CCn5c(cc6c5CC(C)(C)C6)C4=O)c3CO)cn(C)c2=O)nc1 [Example 249, 3-[3-(hydroxymethyl)-4-[1-methyl-5-[[5-[(3R)-3-methylmorpholine-4-carbonyl]-2-pyridyl]amino]-6-oxo-3-pyridyl]-2-pyridyl]-7,7-dimethyl-1,2,6,8-tetrahydrocyclopenta[3,4]pyrrolo[3,5-b]pyrazin-4-one] | 0.0177 µM |
| CC1Cn2nc(Nc3cc(-c4ccnc(N5CCn6c(cc7c6CCCC7)C5=O)c4CO)cn(C)c3=O)cc2CN1C (centres unmarked) [Example 250, 2-[4-[5-[(5,6-dimethyl-6,7-dihydro-4H-pyrazolo[1,5-a]pyrazin-2-yl)amino]-1-methyl-6-oxo-3-pyridyl]-3-(hydroxymethyl)-2-pyridyl]-3,4,6,7,8,9-hexahydropyrazino[1,2-a]indol-1-one] | 0.171 µM |
| CCn1nc(Nc2cc(-c3ccnc(N4CCn5c(cc6c5CC(C)(C)C6)C4=O)c3CO)cn(C)c2=O)cc1C [Example 252, 3-[4-[5-[(1-ethyl-5-methyl-pyrazol-3-yl)amino]-1-methyl-6-oxo-3-pyridyl]-3-(hydroxymethyl)-2-pyridyl]-7,7-dimethyl-1,2,6,8-tetrahydrocyclopenta[3,4]pyrrolo[3,5-b]pyrazin-4-one] | 0.252 µM |
| C[C@H]1CN(C2COC2)CCN1c1ccc(Nc2cc(-c3ccnc(N4CCn5c(cc6c5CC(C)(C)C6)C4=O)c3CO)n[nH]c2=O)nc1 [Example 253, 3-[3-(hydroxymethyl)-4-[5-[[5-[(2S)-2-methyl-4-(oxetan-3-yl)piperazin-1-yl]-2-pyridyl]amino]-6-oxo-1H-pyridazin-3-yl]-2-pyridyl]-7,7-dimethyl-1,2,6,8-tetrahydrocyclopenta[3,4]pyrrolo[3,5-b]pyrazin-4-one] | 0.0164 µM |
| CC(=O)N1CCn2nc(Nc3cc(-c4ccnc(N5CCc6c(sc7c6CC(C)(C)C7)C5=O)c4CO)cn(C)c3=O)cc2C1 [Example 254, 3-[4-[5-[(5-acetyl-6,7-dihydro-4H-pyrazolo[1,5-a]pyrazin-2-yl)amino]-1-methyl-6-oxo-3-pyridyl]-3-(hydroxymethyl)-2-pyridyl]-7,7-dimethyl-1,2,6,8-tetrahydrocyclopenta[3,4]thieno[1,3-c]pyridin-4-one] | 0.0373 µM |
| CC(=O)N1CCn2nc(Nc3cc(-c4ccnc(N5CCn6c7c(c(F)c6C5=O)CCCC7)c4CO)cn(C)c3=O)cc2C1 [Example 255, 2-[4-[5-[(5-acetyl-6,7-dihydro-4H-pyrazolo[1,5-a]pyrazin-2-yl)amino]-1-methyl-6-oxo-3-pyridyl]-3-(hydroxymethyl)-2-pyridyl]-10-fluoro-3,4,6,7,8,9-hexahydropyrazino[1,2-a]indol-1-one] | 0.094 µM |
| C[C@H]1COCCN1C(=O)c1ccc(Nc2cc(-c3ccnc(N4CCn5c(cc6c5CC(C)(C)C6)C4=O)c3CO)nn(C)c2=O)nc1 [Example 256, 3-[3-(hydroxymethyl)-4-[1-methyl-5-[[5-[(3 S)-3-methylmorpholine-4-carbonyl]-2-pyridyl]amino]-6-oxo-pyridazin-3-yl]-2-pyridyl]-7,7-dimethyl-1,2,6,8-tetrahydrocyclopenta[3,4]pyrrolo[3,5-b]pyrazin-4-one] | 0.08 µM |
| C[C@H]1COCCN1C(=O)c1ccc(Nc2cc(-c3ccnc(N4CCn5c(cc6c5CC(C)(C)C6)C4=O)c3CO)cn(C)c2=O)nc1 [Example 257, 3-[3-(hydroxymethyl)-4-[1-methyl-5-[[5-[(3 S)-3-methylmorpholine-4-carbonyl]-2-pyridyl]amino]-6-oxo-3-pyridyl]-2-pyridyl]-7,7-dimethyl-1,2,6,8-tetrahydrocyclopenta[3,4]pyrrolo[3,5-b]pyrazin-4-one] | 0.0216 µM |
| Cn1nc(-c2ccnc(-n3ncc4c5c(sc4c3=O)CCCC5)c2CO)cc(Nc2ccc(C(=O)N3CCOCC3)cn2)c1=O [Example 258, 3-[3-(hydroxymethyl)-4-[1-methyl-5-[[5-(morpholine-4-carbonyl)-2-pyridyl]amino]-6-oxo-pyridazin-3-yl]-2-pyridyl]-6,7,8,9-tetrahydrobenzothiopheno[2,3-d]pyridazin-4-one] | 0.646 µM |
| Cn1nc(-c2ccnc(N3CCc4c(sc5c4CC(C)(C)C5)C3=O)c2CO)cc(Nc2ccc(C(=O)N3CCOCC3)cn2)c1=O [Example 259, 3-[3-(hydroxymethyl)-4-[1-methyl-5-[[5-(morpholine-4-carbonyl)-2-pyridyl]amino]-6-oxo-pyridazin-3-yl]-2-pyridyl]-7,7-dimethyl-1,2,6,8-tetrahydrocyclopenta[3,4]thieno[1,3-c]pyridin-4-one] | 0.301 µM |
| Cc1cc(Nc2cc(-c3ccnc(N4CCn5c(cc6c5CC(C)(C)C6)C4=O)c3CO)cn(C)c2=O)n[nH]1 [Example 260, 3-[3-(hydroxymethyl)-4-[1-methyl-5-[(5-methyl-1H-pyrazol-3-yl)amino]-6-oxo-3-pyridyl]-2-pyridyl]-7,7-dimethyl-1,2,6,8-tetrahydrocyclopenta[3,4]pyrrolo[3,5-b]pyrazin-4-one] | 0.0606 µM |
| Cc1cc(Nc2cc(-c3ccnc(N4CCc5c(c(F)c6n5CCCC6)C4=O)c3CO)cn(C)c2=O)nn1C [Example 261, 2-[4-[5-[(1,5-dimethylpyrazol-3-yl)amino]-1-methyl-6-oxo-3-pyridyl]-3-(hydroxymethyl)-2-pyridyl]-10-fluoro-3,4,6,7,8,9-hexahydropyrido[3,4-b]indolizin-1-one] | 2.9 µM |
| Cc1cnc(Nc2cc(-c3ccnc(N4CCn5c(cc6c5CC(C)(C)C6)C4=O)c3CO)cn(C)c2=O)o1 [Example 262, 3-[3-(hydroxymethyl)-4-[1-methyl-5-[(5-methyloxazol-2-yl)amino]-6-oxo-3-pyridyl]-2-pyridyl]-7,7-dimethyl-1,2,6,8-tetrahydrocyclopenta[3,4]pyrrolo[3,5-b]pyrazin-4-one] | 0.577 µM |
| Cn1nc(-c2ccnc(N3CCn4c5c(c(F)c4C3=O)CCCC5)c2CO)cc(Nc2ccncn2)c1=O [Example 263, 10-fluoro-2-[3-(hydroxymethyl)-4-[1-methyl-6-oxo-5-(pyrimidin-4-ylamino)pyridazin-3-yl]-2-pyridyl]-3,4,6,7,8,9-hexahydropyrazino[1,2-a]indol-1-one] | 2.2 µM |
| Cn1cc(-c2ccnc(N3CCn4c(cc5c4CC(C)(C)C5)C3=O)c2CO)cc(Nc2ccnc(C(C)(C)O)n2)c1=O [Example 264, 3-[3-(hydroxymethyl)-4-[5-[[2-(1-hydroxy-1-methyl-ethyl)pyrimidin-4-yl]amino]-1-methyl-6-oxo-3-pyridyl]-2-pyridyl]-7,7-dimethyl-1,2,6,8-tetrahydrocyclopenta[3,4]pyrrolo[3,5-b]pyrazin-4-one] | 0.653 µM |
| CCC(=O)N1CCn2nc(Nc3cc(-c4ccnc(N5CCn6c(cc7c6CC(C)(C)C7)C5=O)c4CO)cn(C)c3=O)cc2C1 [Example 265, 3-[3-(hydroxymethyl)-4-[1-methyl-6-oxo-5-[(5-propanoyl-6,7-dihydro-4H-pyrazolo[1,5-a]pyrazin-2-yl)amino]-3-pyridyl]-2-pyridyl]-7,7-dimethyl-1,2,6,8-tetrahydrocyclopenta[3,4]pyrrolo[3,5-b]pyrazin-4-one] | 0.0091 µM |
| Cn1cc(-c2ccnc(N3CCn4c(cc5c4CC(C)(C)C5)C3=O)c2CO)cc(Nc2cc(C3COC3)[nH]n2)c1=O [Example 266, 3-[3-(hydroxymethyl)-4-[1-methyl-5-[[5-(oxetan-3-yl)-1H-pyrazol-3-yl]amino]-6-oxo-3-pyridyl]-2-pyridyl]-7,7-dimethyl-1,2,6,8-tetrahydrocyclopenta[3,4]pyrrolo[3,5-b]pyrazin-4-one] | 0.0293 µM |
| Cc1nnc(Nc2cc(-c3ccnc(N4CCn5c(cc6c5CC(C)(C)C6)C4=O)c3CO)cn(C)c2=O)s1 [Example 267, 3-[3-(hydroxymethyl)-4-[1-methyl-5-[(5-methyl-1,3,4-thiadiazol-2-yl)amino]-6-oxo-3-pyridyl]-2-pyridyl]-7,7-dimethyl-1,2,6,8-tetrahydrocyclopenta[3,4]pyrrolo[3,5-b]pyrazin-4-one] | 0.225 µM |
| Cn1cnc(Nc2cc(-c3ccnc(N4CCn5c(cc6c5CC(C)(C)C6)C4=O)c3CO)cn(C)c2=O)c1 [Example 268, 3-[3-(hydroxymethyl)-4-[1-methyl-5-[(1-methylimidazol-4-yl)amino]-6-oxo-3-pyridyl]-2-pyridyl]-7,7-dimethyl-1,2,6,8-tetrahydrocyclopenta[3,4]pyrrolo[3,5-b]pyrazin-4-one] | 0.212 µM |

— patent US10045983B2, “Heteroaryl pyridone and aza-pyrodine compounds” (Genentech, Inc., priority 2011, dated 2018)
